One molecule from publication PMC5824847, “Linear peptidomimetics as potent antagonists of Staphylococcus aureus agr quorum sensing” (Scientific Reports, 2018) can be followed below.

SMILES strings stand for the structures. Values after ≈ are worked out from the molar mass of the structure shown. “Also recorded” adds a separate entry of the source. Square brackets hold non-standard residues; d marks the D form. Peptide text beside a SMILES is read from it. N(1-naphthylmethyl)Gly = O=C(O)CNCc1cccc2ccccc12; N(4-MeBn)Gly = Cc1ccc(CNCC(=O)O)cc1; NBuGly = CCCCNCC(=O)O

The nature of data set [1]: RP-HPLC retention time (hydrophobicity). The following applies: analytical RP-HPLC; used by the paper as a measure of hydrophobicity. It is filed as physicochemical. The procedure: The synthesis of the peptidomimetics was performed as described by Oddo et al. (2015)[51]. According to this, a combination of Fmoc Solid Phase Peptide Synthesis (SPPS) and sub-monomer approach was applied. After the synthesis, the peptidomimetics were purified (>95%) by preparative HPLC and the purity was determined through analytical HPLC. Moreover, the MALDI-TOF-MS was used in order to verify the identity of the peptidomimetics.

For data set [2], the system named is S. aureus virulence gene expression (agr; RNAIII, hla, spa reporters). The experiment in a line: Agar diffusion reporter assay, overall activity on the three reporters. It is filed as cell-based, Staphylococcus aureus. The following applies: TSA plates with RNAIII::lacZ, hla::lacZ and spa::lacZ reporters, 10 μg/well (500 μg/ml; 20 μl/well).
Description: The reporter assay was conducted as described by Nielsen et al. (2010) using three different lacZ transcriptional reporter strains, PC203, PC322 and SH101F[37]. Test compounds dissolved in H2O or DMSO was added to agar wells at indicated concentrations and solvent only was included as a control. Incubation until blue color appeared in plates varied from 9 h to 48 h. The ability of the peptidomimetics to influence virulence gene expression was observed based on the color change around the wells; a white halo represents downregulation of virulence gene expression, while a blue halo represents upregulation of expression, with the size of the halo being indicative of the degree of interference.
In data set [3] the test system is 8325-4 and RN10829 WT S. aureus strains. As to the kind of experiment: Minimum Inhibitory Concentration (MIC). It is filed as cell-based, Staphylococcus aureus. The following applies: TSB, two-fold dilution series 4 to 256 μg/ml, approx. 5 × 10^5 CFU/ml, 24 hours at 37 °C; lowest concentration with no growth; values identical for 8325-4 and RN10829 WT. The procedure:
Overnight cultures (24 h, 37 °C, 200 rpm in TSB) of S. aureus strains were diluted 5000X in fresh TSB and was aliquoted into 96-well microtiter plates with two-fold dilution series of the peptidomimetics ranging from 4 μg/ml to 256 μg/ml (final concentration) to reach an initial cell density of approximately 5 × 10^5 CFU/ml. DMSO was used as control and the plate was incubated for 24 hours at 37 °C. The MICs of the peptidomimetics were recorded as the lowest concentration for which no bacterial growth was observed.
Supplementary Table S2: Minimum Inhibitory Concentration (MIC) of the peptidomimetics tested on 8325-4 and RN10829 WT S. aureus strains (MIC values were identical for both strains, thus are represented here in one column).

A word on the MIC: it is the lowest concentration that inhibits growth of the organism. Read a low MIC as a more susceptible organism.

Regarding `CCCCN(CC(=O)N(CC(=O)NCC(N)=O)Cc1cccc2ccccc12)C(=O)[C@H](CCCCN)NC(=O)[C@H](CCCCN)NC(=O)CN(Cc1ccc(C)cc1)C(=O)CNCc1cccc2ccccc12` [G7] (H-[N(1-naphthylmethyl)Gly][N(4-MeBn)Gly]KK[NBuGly][N(1-naphthylmethyl)Gly]G-NH2), the “Rt (RP-HPLC retention time)” value in data set [1] was found to be 17.5 min. The “Activity on virulence gene expression (agr modulatory activity), overall” value in data set [2] was “increased activity; also recorded: greatly improved agr-inhibitory activity compared to D3”. The molecule also gave an MIC in data set [3] of 64 µg/mL (≈ 64 µM).
